“And” between values parts separate entries of the source, which are not always exact repeats. Identical values can stand only once. Toxic doses and inconclusive results are not listed.

The subject of this test is P388 leukemia ip, CD2F1 mice, survival T/C. Put plainly: NCI In Vivo Anticancer Drug Screen. Data for tumor model P388 Leukemia (intraperitoneal) in CD2F1 (CDF1) mice. The following applies: endpoint: median survival time, higher = longer survival. The essentials:
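Mice carrying the transplanted tumor received test compound or vehicle. Survival was recorded in each group, and the value is the treated-group measurement divided by that of the vehicle-treated control group.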

The mark [1] stands for this setting: dose: 50.0 mg/kg/injection, schedule: Q01DX009 (ip), vehicle: saline with Tween-80.
[2] abbreviates: dose: 100.0 mg/kg/injection, schedule: Q01DX009 (ip), vehicle: saline with Tween-80.
The mark [3] stands for this setting: dose: 200.0 mg/kg/injection, schedule: Q01DX009 (ip), vehicle: saline with Tween-80.
Setting [4] is: dose: 25.0 mg/kg/injection, schedule: Q04DX003 (ip), vehicle: saline with Tween-80.
[5] abbreviates: dose: 400.0 mg/kg/injection, schedule: Q04DX003 (ip), vehicle: saline with Tween-80.
The mark [6] stands for this setting: dose: 50.0 mg/kg/injection, schedule: Q01DX005 (ip), vehicle: saline with Tween-80.
Where [7] appears, read: dose: 100.0 mg/kg/injection, schedule: Q01DX005 (ip), vehicle: saline with Tween-80.
The mark [8] stands for this setting: dose: 50.0 mg/kg/injection, schedule: Q01DX009 (ip), vehicle: saline.
Where [9] appears, read: dose: 100.0 mg/kg/injection, schedule: Q01DX009 (ip), vehicle: saline.
Where [10] appears, read: dose: 200.0 mg/kg/injection, schedule: Q01DX009 (ip), vehicle: saline.
Where [11] appears, read: dose: 12.5 mg/kg/injection, schedule: Q01DX009 (ip), vehicle: saline.
[12] abbreviates: dose: 25.0 mg/kg/injection, schedule: Q01DX009 (ip), vehicle: saline.
[13] abbreviates: dose: 50.0 mg/kg/injection, schedule: Q01DX005 (ip), vehicle: Klucel (hydroxypropylcellulose) (HPC).
[14] abbreviates: dose: 100.0 mg/kg/injection, schedule: Q01DX005 (ip), vehicle: Klucel (hydroxypropylcellulose) (HPC).
Setting [15] is: dose: 200.0 mg/kg/injection, schedule: Q01DX005 (ip), vehicle: Klucel (hydroxypropylcellulose) (HPC).
The mark [16] stands for this setting: dose: 100.0 mg/kg/injection, schedule: Q04DX003 (ip), vehicle: saline with Tween-80.
[17] abbreviates: dose: 60.0 mg/kg/injection, schedule: Q01DX005 (ip), vehicle: saline with Tween-80.
[18] abbreviates: dose: 120.0 mg/kg/injection, schedule: Q01DX005 (ip), vehicle: saline with Tween-80.

Take `CC(=O)O[C@H]1C(=O)[C@]2(C)[C@@H](OC(C)=O)CC3OC[C@@]3(OC(C)=O)[C@H]2[C@H](OC(=O)c2ccccc2)[C@]2(O)C[C@H](OC(=O)[C@H](O)[C@@H](NC(=O)c3ccccc3)c3ccccc3)C(C)=C1C2(C)C` (stereo not given in full): the T/C is 100 % of control (dose: 2.5 mg/kg/injection, schedule: Q01DX005 (ip), vehicle: DMSO) and 111 % of control (dose: 5.0 mg/kg/injection, schedule: Q01DX005 (ip), vehicle: DMSO).
With `COc1nc(C(O)C2OC(C)(C)OCC2O)[nH]c1C#N` (stereo not given), the T/C (dose: 50.0 mg/kg/injection, schedule: Q01DX009 (ip), vehicle: Klucel (hydroxypropylcellulose) (HPC)) is 106 % of control; the T/C (dose: 100.0 mg/kg/injection, schedule: Q01DX009 (ip), vehicle: Klucel (hydroxypropylcellulose) (HPC)) was 102 % of control and 91 % of control; the T/C (dose: 200.0 mg/kg/injection, schedule: Q01DX009 (ip), vehicle: Klucel (hydroxypropylcellulose) (HPC)) is 103 % of control and 110 % of control.
Consider `O=C(O)CNC(=O)C(F)(F)F`, for which the T/C is 93 % of control under setting [1], 91 % of control under setting [2] and 95 % of control under setting [3].
Take `CC(=N/NC(=S)NCCN1CCCC1)/C(C)=N\NC(=S)NCCN1CCCC1`: the T/C is, setting by setting: (dose: 6.25 mg/kg/injection, schedule: Q04DX003 (ip), vehicle: saline with Tween-80) 117 % of control; (dose: 12.5 mg/kg/injection, schedule: Q04DX003 (ip), vehicle: saline with Tween-80) 98 % of control; under setting [4], 100 % of control.
For the compound `C=C1C(=O)O[C@@H]2/C=C(/C)[C@@H](OC(C)=O)C/C=C(\C)C(O)[C@@H](OC(=O)/C(C)=C\C)C12` (stereo not given in full), the T/C by setting is: (dose: 25.0 mg/kg/injection, schedule: Q04DX002 (ip), vehicle: saline with Tween-80) 105 % of control; (dose: 50.0 mg/kg/injection, schedule: Q04DX002 (ip), vehicle: saline with Tween-80) 105 % of control; (dose: 100.0 mg/kg/injection, schedule: Q04DX002 (ip), vehicle: saline with Tween-80) 104 % of control; (dose: 200.0 mg/kg/injection, schedule: Q04DX002 (ip), vehicle: saline with Tween-80) 97 % of control.
Regarding `O=Cc1ccc(C(Cl)(Cl)Cl)cc1`, the T/C is 123 % of control under setting [1]; 109 % of control (dose: 264.0 mg/kg/injection, schedule: Q04DX003 (ip), vehicle: saline with Tween-80); 159 % of control under setting [5].
`CCCCCCCCCCCCCC1=C(O)C(=O)C=C(O)C1=O`: the T/C (dose: 1.0 mg/kg/injection, schedule: Q01DX005 (ip), vehicle: Klucel (hydroxypropylcellulose) (HPC)) was 100 % of control; the T/C (dose: 2.0 mg/kg/injection, schedule: Q01DX005 (ip), vehicle: Klucel (hydroxypropylcellulose) (HPC)) is 105 % of control; the T/C (dose: 4.0 mg/kg/injection, schedule: Q01DX005 (ip), vehicle: Klucel (hydroxypropylcellulose) (HPC)) is 95 % of control; the T/C (dose: 8.0 mg/kg/injection, schedule: Q01DX005 (ip), vehicle: Klucel (hydroxypropylcellulose) (HPC)) is 102 % of control; the T/C (dose: 16.0 mg/kg/injection, schedule: Q01DX005 (ip), vehicle: Klucel (hydroxypropylcellulose) (HPC)) was 98 % of control.
`CCN(CC)c1ccc2nc3ccc(N=Nc4ccc(O)cc4)cc3[n+](-c3ccccc3)c2c1`: the T/C by setting is: under setting [6], 118 % of control; under setting [7], 114 % of control.
Turning to `O=C(CCl)N1c2ccccc2Sc2ccc3ccccc3c21`, the T/C runs as follows: under setting [8], 95 % of control; under setting [9], 102 % of control; under setting [10], 113 % of control.
Regarding `OCC1OC(OC2C3CSC(O3)C(O)C2O)C(O)C(O)C1O` (stereo not given), the T/C by setting is: under setting [8], 105 % of control; under setting [9], 106 % of control; under setting [10], 106 % of control.
With `COCC(CN1CCN(c2ccccc2OC)CC1)OC` (stereo not given), the T/C runs as follows: under setting [11], 97 % of control; under setting [12], 98 % of control; under setting [8], 90 % of control.
`CCCNC(=S)Nc1ncco1`: the T/C is 100 % of control under setting [8], 96 % of control under setting [9] and 111 % of control under setting [10].
For `[Cl][Ge]([c]1ccccc1)[c]1ccccc1.c1cc[c]([GeH][c]2ccccc2)cc1`, the T/C is, setting by setting: under setting [13], 93 % of control; under setting [14], 100 % of control; under setting [15], 103 % of control.
In the case of `CCOC(=O)NC(C(=O)N(C(=O)NC1CCCCC1)C1CCCCC1)C(C)C` (stereo not given), the T/C by setting is: under setting [13], 100 % of control; under setting [14], 95 % of control; under setting [15], 90 % of control.
With `NC(C[P+](=O)O)C(=O)O` (stereo not given), the T/C (dose: 18.75 mg/kg/injection, schedule: Q01DX005 (ip), vehicle: water) was 103 % of control; the T/C (dose: 37.5 mg/kg/injection, schedule: Q01DX005 (ip), vehicle: water) was 111 % of control; the T/C (dose: 75.0 mg/kg/injection, schedule: Q01DX005 (ip), vehicle: water) was 91 % of control; the T/C (dose: 150.0 mg/kg/injection, schedule: Q01DX005 (ip), vehicle: water) was 87 % of control.
`FC(F)(F)COP(c1ccccc1)c1ccccc1`: the T/C was 113 % of control under setting [6]; 111 % of control under setting [7]; 114 % of control (dose: 200.0 mg/kg/injection, schedule: Q01DX005 (ip), vehicle: saline with Tween-80).
`O=C(CBr)Nc1ncc([N+](=O)[O-])s1`: the T/C runs as follows: (dose: 6.25 mg/kg/injection, schedule: Q01DX009 (ip), vehicle: Klucel (hydroxypropylcellulose) (HPC)) 102 % of control; (dose: 12.5 mg/kg/injection, schedule: Q01DX009 (ip), vehicle: Klucel (hydroxypropylcellulose) (HPC)) 104 % of control.
For `COC(=O)C1=NNC(C(=O)OC)=NN1`, the T/C by setting is: (dose: 25.0 mg/kg/injection, schedule: Q01DX009 (ip), vehicle: other) 87 % of control; (dose: 50.0 mg/kg/injection, schedule: Q01DX009 (ip), vehicle: other) 106 % of control; (dose: 100.0 mg/kg/injection, schedule: Q01DX009 (ip), vehicle: other) 98 % of control; (dose: 200.0 mg/kg/injection, schedule: Q01DX009 (ip), vehicle: other) 106 % of control; (dose: 400.0 mg/kg/injection, schedule: Q01DX009 (ip), vehicle: other) 103 % of control.
For `CC(=O)N1c2ccccc2Sc2cc(C(O)(C(F)(F)F)C(F)(F)F)ccc21`, the T/C by setting is: under setting [4], 95 % of control; (dose: 50.0 mg/kg/injection, schedule: Q04DX003 (ip), vehicle: saline with Tween-80) 100 % of control; under setting [16], 100 % of control.
Turning to `c1ccc(-c2cc[n+]3c4c2ccc2c(-c5ccccc5)cc[n+](c24)CC3)cc1`, the T/C (dose: 6.25 mg/kg/injection, schedule: Q01DX009 (ip), vehicle: saline) was 99 % of control; the T/C under setting [11] was 98 % of control and 100 % of control; the T/C under setting [12] was 104 % of control and 117 % of control.
With `O=C(CN1CCN(c2ccccc2)CC1)n1nnc2ccccc21`, the T/C runs as follows: under setting [17], 93 % of control; under setting [18], 87 % of control.
As for `COC1=CC2OC3OC(=O)CC3C2C(OCc2ccccc2)=C1` (stereo not given), the T/C under setting [17] is 91 % of control; the T/C under setting [18] is 88 % of control; the T/C (dose: 240.0 mg/kg/injection, schedule: Q01DX005 (ip), vehicle: saline with Tween-80) was 90 % of control.
Turning to `O=C1NC(=O)/C(=C2\CCOC2=O)N1`, the T/C is 100 % of control under setting [1], 94 % of control under setting [2] and 100 % of control under setting [3].
Take `BrCCC[n+]1ccc2ccccc2c1-c1nccc2ccccc12`: the T/C reads like this: (dose: 3.12 mg/kg/injection, schedule: Q01DX001 (ip), vehicle: saline) 104 % of control; (dose: 6.25 mg/kg/injection, schedule: Q01DX001 (ip), vehicle: saline) 98 % of control; (dose: 12.5 mg/kg/injection, schedule: Q01DX001 (ip), vehicle: saline) 101 % of control and 115 % of control.
As to `CCN(CC)CCNc1ccc(C)c2sc3c(N)cccc3c(=O)c12`, the T/C was 100 % of control under setting [1], 113 % of control under setting [2] and 123 % of control under setting [3].
On to `C=CCn1nc(-c2ccccc2)c(-c2ccccc2)n1`, for which the T/C under setting [16] is 98 % of control; the T/C (dose: 200.0 mg/kg/injection, schedule: Q04DX003 (ip), vehicle: saline with Tween-80) is 95 % of control; the T/C under setting [5] was 89 % of control.

The record behind these values is PubChem BioAssay AID330 (DTP/NCI, 2004).
